From patent US6689773B2, “Uracil substituted phenyl sulfamoyl carboxamides” (BASF Aktiengesellschaft, priority 2000, dated 2004)

How the values were obtained:
Assay type in all cases: in vivo
[1] = system: CHEAL, Lambsquarters, Chenopodium album, L. Common; assay: Preemergence herbicidal evaluation (Example 148); details: rating scale 0-9, two to four weeks after treatment
Method in brief: (§1)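 Test compound was applied in aqueous acetone to freshly planted cups at an equivalent of about 0.125 to 0.250 kg/ha, before emergence. Ratings, taken after two to four weeks of greenhouse growth, were averaged where a compound was tested more than once.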

[2] = system: GLXMA, Soybean, Glycine max, (L.) Merr.; assay: Preemergence herbicidal evaluation (Example 148); details: rating scale 0-9, two to four weeks after treatment
Method in brief: as §1

[3] = system: SETVI, Green foxtail, Setaria viridis, (L.)Beau; assay: Preemergence herbicidal evaluation (Example 148); details: rating scale 0-9, two to four weeks after treatment
Method in brief: as §1

[4] = system: AMBEL, Ragweed, Common, Ambrosia artemiisifolia, L.; assay: Preemergence herbicidal evaluation (Example 148); details: rating scale 0-9, two to four weeks after treatment
Method in brief: as §1

[5] = system: TRZAW, Winter wheat, Tritium Aestivum, L. (Winter); assay: Preemergence herbicidal evaluation (Example 148); details: rating scale 0-9, two to four weeks after treatment
Method in brief: as §1

[6] = system: ZEAMX, Field corn, Zea mays L.; assay: Preemergence herbicidal evaluation (Example 148); details: rating scale 0-9, two to four weeks after treatment
Method in brief: as §1

[7] = system: ABUTH, Velvetleaf, Abutilon theophrasti, Medic.; assay: Preemergence herbicidal evaluation (Example 148); details: rating scale 0-9, two to four weeks after treatment
Method in brief: as §1

[8] = system: ECHCG, Barnyardgrass, Echinochloa crusgalli, (L.)Beau; assay: Preemergence herbicidal evaluation (Example 148); details: rating scale 0-9, two to four weeks after treatment
Method in brief: as §1

[9] = system: XANST, Cocklebur, Xanthium strumariam; assay: Preemergence herbicidal evaluation (Example 148); details: rating scale 0-9, two to four weeks after treatment
Method in brief: as §1

[10] = system: ALOMY, Blackgrass, Alopecurus myosuroides; assay: Preemergence herbicidal evaluation (Example 148); details: rating scale 0-9, two to four weeks after treatment
Method in brief: as §1

[11] = system: DIGSA, Crabgrass, (Hairy) L, Digitaria sanguinalis, (L)Scop; assay: Preemergence herbicidal evaluation (Example 148); details: rating scale 0-9, two to four weeks after treatment
Method in brief: as §1

[12] = system: IPOHE, Morningglory, Ivyleaf, Ipomoea hederacea, (L)Jacq.; assay: Preemergence herbicidal evaluation (Example 148); details: rating scale 0-9, two to four weeks after treatment
Method in brief: as §1

[13] = system: CHEAL, Lambsquarters, Chenopodium album, L. Common; assay: Postemergence herbicidal evaluation (Example 147); details: rating scale 0-9, two to three weeks after treatment
Method in brief: (§2)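 About two-week-old seedlings were sprayed postemergence at roughly 0.016–0.032 kg/ha in 80/20 acetone/water with 1.0% methylated seed oil. After two to three weeks in the greenhouse, injury was rated visually on a 0–9 scale against controls, and repeat tests were averaged.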

[14] = system: GLXMA, Soybean, Glycine max, (L.) Merr.; assay: Postemergence herbicidal evaluation (Example 147); details: rating scale 0-9, two to three weeks after treatment
Method in brief: as §2

[15] = system: SETVI, Green foxtail, Setaria viridis, (L.)Beau; assay: Postemergence herbicidal evaluation (Example 147); details: rating scale 0-9, two to three weeks after treatment
Method in brief: as §2

[16] = system: AMBEL, Ragweed, Common, Ambrosia artemiisifolia, L.; assay: Postemergence herbicidal evaluation (Example 147); details: rating scale 0-9, two to three weeks after treatment
Method in brief: as §2

[17] = system: TRZAW, Winter wheat, Tritium Aestivum, L. (Winter); assay: Postemergence herbicidal evaluation (Example 147); details: rating scale 0-9, two to three weeks after treatment
Method in brief: as §2

[18] = system: ZEAMX, Field corn, Zea mays L.; assay: Postemergence herbicidal evaluation (Example 147); details: rating scale 0-9, two to three weeks after treatment
Method in brief: as §2

[19] = system: ABUTH, Velvetleaf, Abutilon theophrasti, Medic.; assay: Postemergence herbicidal evaluation (Example 147); details: rating scale 0-9, two to three weeks after treatment
Method in brief: as §2

[20] = system: ECHCG, Barnyardgrass, Echinochloa crusgalli, (L.)Beau; assay: Postemergence herbicidal evaluation (Example 147); details: rating scale 0-9, two to three weeks after treatment
Method in brief: as §2

[21] = system: XANST, Cocklebur, Xanthium strumariam; assay: Postemergence herbicidal evaluation (Example 147); details: rating scale 0-9, two to three weeks after treatment
Method in brief: as §2

[22] = system: ALOMY, Blackgrass, Alopecurus myosuroides; assay: Postemergence herbicidal evaluation (Example 147); details: rating scale 0-9, two to three weeks after treatment
Method in brief: as §2

[23] = system: DIGSA, Crabgrass, (Hairy) L, Digitaria sanguinalis, (L)Scop; assay: Postemergence herbicidal evaluation (Example 147); details: rating scale 0-9, two to three weeks after treatment
Method in brief: as §2

[24] = system: IPOHE, Morningglory, Ivyleaf, Ipomoea hederacea, (L)Jacq.; assay: Postemergence herbicidal evaluation (Example 147); details: rating scale 0-9, two to three weeks after treatment
Method in brief: as §2

CCCN(CC)S(=O)(=O)NC(=O)c1cc(-n2c(=O)cc(C(F)(F)F)n(C)c2=O)c(F)cc1Cl [Example 62]
9.0: Preemergence herbicidal rating CHEAL ([1]; rate 0.125 kg/ha) | Preemergence herbicidal rating CHEAL ([1]; rate 0.25 kg/ha) | Preemergence herbicidal rating GLXMA ([2]; rate 0.25 kg/ha) | Preemergence herbicidal rating AMBEL ([4]; rate 0.125 kg/ha) | Preemergence herbicidal rating AMBEL ([4]; rate 0.25 kg/ha) | Preemergence herbicidal rating ABUTH ([7]; rate 0.125 kg/ha) | Preemergence herbicidal rating ABUTH ([7]; rate 0.25 kg/ha) | Preemergence herbicidal rating XANST ([9]; rate 0.125 kg/ha) | Preemergence herbicidal rating XANST ([9]; rate 0.25 kg/ha) | Preemergence herbicidal rating IPOHE ([12]; rate 0.125 kg/ha) | Preemergence herbicidal rating IPOHE ([12]; rate 0.25 kg/ha) | Postemergence herbicidal rating AMBEL ([16]; rate 0.016 kg/ha) | Postemergence herbicidal rating AMBEL ([16]; rate 0.032 kg/ha) | Postemergence herbicidal rating ABUTH ([19]; rate 0.016 kg/ha) | Postemergence herbicidal rating ABUTH ([19]; rate 0.032 kg/ha) | Postemergence herbicidal rating XANST ([21]; rate 0.016 kg/ha) | Postemergence herbicidal rating XANST ([21]; rate 0.032 kg/ha) | Postemergence herbicidal rating IPOHE ([24]; rate 0.016 kg/ha) | Postemergence herbicidal rating IPOHE ([24]; rate 0.032 kg/ha)
2.0: Postemergence herbicidal rating ALMOY ([22]; rate 0.016 kg/ha) | Postemergence herbicidal rating ALMOY ([22]; rate 0.032 kg/ha)
8.0: Postemergence herbicidal rating CHEAL ([13]; rate 0.032 kg/ha) | Postemergence herbicidal rating GLXMA ([14]; rate 0.016 kg/ha) | Postemergence herbicidal rating GLXMA ([14]; rate 0.032 kg/ha)
6.0: Preemergence herbicidal rating ECHCG ([8]; rate 0.25 kg/ha) | Postemergence herbicidal rating SETVI ([15]; rate 0.016 kg/ha) | Postemergence herbicidal rating SETVI ([15]; rate 0.032 kg/ha) | Postemergence herbicidal rating ECHCG ([20]; rate 0.016 kg/ha)
5.0: Preemergence herbicidal rating GLXMA ([2]; rate 0.125 kg/ha) | Preemergence herbicidal rating TRZAW ([5]; rate 0.25 kg/ha) | Preemergence herbicidal rating DIGSA ([11]; rate 0.125 kg/ha) | Postemergence herbicidal rating DIGSA ([23]; rate 0.016 kg/ha) | Postemergence herbicidal rating DIGSA ([23]; rate 0.032 kg/ha)
6.5: Postemergence herbicidal rating TRZAW ([17]; rate 0.032 kg/ha) | Postemergence herbicidal rating ZEAMX ([18]; rate 0.016 kg/ha) | Postemergence herbicidal rating ZEAMX ([18]; rate 0.032 kg/ha)
5.5: Postemergence herbicidal rating TRZAW ([17]; rate 0.016 kg/ha)
1.0: Preemergence herbicidal rating ZEAMX ([6]; rate 0.125 kg/ha) | Preemergence herbicidal rating ZEAMX ([6]; rate 0.25 kg/ha)
0.0: Preemergence herbicidal rating ALMOY ([10]; rate 0.125 kg/ha) | Preemergence herbicidal rating ALMOY ([10]; rate 0.25 kg/ha)
7.0: Preemergence herbicidal rating SETVI ([3]; rate 0.25 kg/ha) | Preemergence herbicidal rating DIGSA ([11]; rate 0.25 kg/ha) | Postemergence herbicidal rating CHEAL ([13]; rate 0.016 kg/ha) | Postemergence herbicidal rating ECHCG ([20]; rate 0.032 kg/ha)
3.0: Preemergence herbicidal rating SETVI ([3]; rate 0.125 kg/ha) | Preemergence herbicidal rating TRZAW ([5]; rate 0.125 kg/ha) | Preemergence herbicidal rating ECHCG ([8]; rate 0.125 kg/ha)
